Assays:
Assay type in all cases: in vivo
[1] = tested on: wheat (Triticum aestivum var. Lew); test: Postemergence herbicidal activity, wheat; conditions: rate of application 0.3 Kg/Ha, rated after 12-17 days
[2] = tested on: blackgrass (Aloepecurus myosuroides); test: Postemergence herbicidal activity, blackgrass; conditions: rate of application 0.3 Kg/Ha, rated after 12-17 days
[3] = tested on: velvetleaf (Abutilon theophrasti); test: Preemergence herbicidal activity, velvetleaf; conditions: Rate of Application 0.3 Kg/Ha, examined after 12-17 days
[4] = tested on: field corn (Zea mays var. Pioneer 3732); test: Preemergence herbicidal activity, corn; conditions: Rate of Application 0.3 Kg/Ha, examined after 12-17 days
[5] = tested on: blackgrass (Aloepecurus myosuroides); test: Preemergence herbicidal activity, blackgrass; conditions: Rate of Application 0.3 Kg/Ha, examined after 12-17 days
[6] = tested on: soybean (Glycine max var. Winchester); test: Preemergence herbicidal activity, soybean; conditions: Rate of Application 0.3 Kg/Ha, examined after 12-17 days
[7] = tested on: soybean (Glycine max var. Winchester); test: Postemergence herbicidal activity, soybean; conditions: rate of application 0.3 Kg/Ha, rated after 12-17 days
[8] = tested on: Johnsongrass (Sorghum halepense); test: Preemergence herbicidal activity, johnsongrass; conditions: Rate of Application 0.3 Kg/Ha, examined after 12-17 days
[9] = tested on: green foxtail (Setaria viridis); test: Preemergence herbicidal activity, green foxtail; conditions: Rate of Application 0.3 Kg/Ha, examined after 12-17 days
[10] = tested on: morningglory (Ipomea lacunosa or Ipomea hederacea); test: Preemergence herbicidal activity, morningglory; conditions: Rate of Application 0.3 Kg/Ha, examined after 12-17 days
[11] = tested on: field corn (Zea mays var. Pioneer 3732); test: Postemergence herbicidal activity, corn; conditions: rate of application 0.3 Kg/Ha, rated after 12-17 days
[12] = tested on: common chickweed (Stellaria media); test: Postemergence herbicidal activity, chickweed; conditions: rate of application 0.3 Kg/Ha, rated after 12-17 days
[13] = tested on: green foxtail (Setaria viridis); test: Postemergence herbicidal activity, green foxtail; conditions: rate of application 0.3 Kg/Ha, rated after 12-17 days
[14] = tested on: morningglory (Ipomea lacunosa or Ipomea hederacea); test: Postemergence herbicidal activity, morningglory; conditions: rate of application 0.3 Kg/Ha, rated after 12-17 days
[15] = tested on: common cocklebur (Xanthium strumarium L.); test: Preemergence herbicidal activity, cocklebur; conditions: Rate of Application 0.3 Kg/Ha, examined after 12-17 days
[16] = tested on: Johnsongrass (Sorghum halepense); test: Postemergence herbicidal activity, johnsongrass; conditions: rate of application 0.3 Kg/Ha, rated after 12-17 days
[17] = tested on: velvetleaf (Abutilon theophrasti); test: Postemergence herbicidal activity, velvetleaf; conditions: rate of application 0.3 Kg/Ha, rated after 12-17 days
[18] = tested on: common chickweed (Stellaria media); test: Preemergence herbicidal activity, chickweed; conditions: Rate of Application 0.3 Kg/Ha, examined after 12-17 days
[19] = tested on: wheat (Triticum aestivum var. Lew); test: Preemergence herbicidal activity, wheat; conditions: Rate of Application 0.3 Kg/Ha, examined after 12-17 days
[20] = tested on: common cocklebur (Xanthium strumarium L.); test: Postemergence herbicidal activity, cocklebur; conditions: rate of application 0.3 Kg/Ha, rated after 12-17 days

Compound	Postemergence herbicidal activity (% control) WHT [1]	Postemergence herbicidal activity (% control) ALOMY [2]	PREEMERGENCE HERBICIDAL ACTIVITY (% CONTROL) ABUTH [3]	PREEMERGENCE HERBICIDAL ACTIVITY (% CONTROL) CRN [4]	PREEMERGENCE HERBICIDAL ACTIVITY (% CONTROL) ALOMY [5]	PREEMERGENCE HERBICIDAL ACTIVITY (% CONTROL) SOY [6]	Postemergence herbicidal activity (% control) SOY [7]	PREEMERGENCE HERBICIDAL ACTIVITY (% CONTROL) SORHA [8]	PREEMERGENCE HERBICIDAL ACTIVITY (% CONTROL) SETVI [9]	PREEMERGENCE HERBICIDAL ACTIVITY (% CONTROL) IPOSS [10]	Postemergence herbicidal activity (% control) CRN [11]	Postemergence herbicidal activity (% control) STEME [12]	Postemergence herbicidal activity (% control) SETVI [13]	Postemergence herbicidal activity (% control) IPOSS [14]	PREEMERGENCE HERBICIDAL ACTIVITY (% CONTROL) XANPE [15]	Postemergence herbicidal activity (% control) SORHA [16]	Postemergence herbicidal activity (% control) ABUTH [17]	PREEMERGENCE HERBICIDAL ACTIVITY (% CONTROL) STEME [18]	PREEMERGENCE HERBICIDAL ACTIVITY (% CONTROL) WHT [19]	Postemergence herbicidal activity (% control) XANPE [20]
C=C(C)c1cc2c(Cl)cc(F)c(-n3c(=O)cc(C(F)(F)F)n(C)c3=O)c2o1 [Compound 231]	70%	100%	100%	100%	90%	100%	100%	100%	100%	100%	100%	100%	100%	100%	100%	100%	100%	100%	80%	
CNC(=O)OC(C)c1cc2c(Cl)cc(F)c(-n3c(=O)cc(C(F)(F)F)n(C)c3=O)c2o1 (stereo not shown) [Compound 249]	80%	100%	100%	95%	80%	100%	95%	100%	10%	100%	100%	100%	100%	100%	90%		100%	100%	80%	100%
Cn1c(C(F)(F)F)cc(=O)n(-c2c(F)cc(Cl)c3cc(C(C)(C)C)oc23)c1=O [Compound 227]	60%	100%	100%	90%	95%	100%	95%	100%	100%	100%	90%	100%	100%	100%		100%	100%	100%	80%	100%
CC(C)Oc1nc2c(-n3c(=O)cc(C(F)(F)F)n(C)c3=O)c(F)cc(Br)c2o1 [Compound 107]	40%	90%	100%	90%	75%	80%	95%	100%	100%	100%	100%	100%	100%	100%	40%	100%	100%	100%	60%	
Cn1c(C(F)(F)F)cc(=O)n(-c2c(F)cc(Cl)c3[nH]cnc23)c1=O [Compound 362]	100%	100%	100%	100%	100%	100%	100%	100%	100%	100%	100%	100%	100%	100%	100%	100%	100%	100%	100%	
CC(OC(=O)NCc1ccccc1)c1cc2c(Cl)cc(F)c(-n3c(=O)cc(C(F)(F)F)n(C)c3=O)c2o1 (stereo not shown) [Compound 250]	50%	40%	100%	50%	60%	80%	95%	70%	100%	100%	80%	80%	100%	100%	100%	100%	100%		40%	100%
Cn1c(C(F)(F)F)cc(=O)n(-c2c(F)cc(Cl)c3cc(CCCC#N)oc23)c1=O [Compound 256]	80%	80%	100%	95%	70%	100%	100%	90%	100%	100%	90%	100%	100%	100%		100%	100%	100%	80%	100%

From US6352958B1, “Cycloimido-substituted benzofused heterocyclic herbicides” (FMC Corporation, priority 1997, dated 2002)
